From patent publication US8389794B2, “Transgenic pig as a model of Alzheimer's disease” (Aarhus Universitet, priority 2007, dated 2013)
Where a SMILES comes first, the peptide text is derived from it. [ ]: non-standard residue; d: D form. Nle = CCCC[C@H](N)C(=O)O

Legend:
[1] = tested on: PDAPP transgenic mouse; settings: subcutaneous immunization, 100 ug in complete Freund adjuvant; cited from earlier work
[2] = tested on: APP695; test: Western blot (antibody 6E10) of fibroblasts grown with protease inhibitors; assay type: cell-based, Göttingen minipig
Experimental: A Western blot using a commercial anti-APP antibody (6E10), […], was performed according to the manufacturer's recommendations. The Western blot was performed on extracts from fibroblast cells of a transgenic pig (lanes 1 and 2) and on extracts from fibroblast cells of a wt pig (lanes 3 and 4), see FIG. 10. In lane 1 the fibroblasts have been treated with the protease inhibitor ALLN, whereas the fibroblasts of lane 2 have not received treatment. […] In contrast, the lower molecular weight products are not present in similar amounts as in lane 2. Lanes 3 and 4 contain extracts of fibroblasts from wt pigs and no effect of ALLN treatment is evident in comparison to the extracts of transgenic pigs.
a) Non-transgenic donor fibroblasts (74114 cells) and fibroblasts from transgenic minipiglet No. 47 were grown to 80% confluence in a 75 cm2 flask. The cells from each flask were resuspended in 24 ml medium and transferred to a 6-well plate (TPP, Schwitzerland) with 2.5 ml of the cell suspension in each well. Medium was changed the following day with 2 ml fresh medium containing the chemical at the indicated concentration were added to the wells of both plates: well No. 1, 5 μM Lactacystin; well No. 2, 20 μM Leupeptin; well No. 3, 20 μl DMSO; well No. 4, 20 μM ALLN; well No. 5, 2.5 mM NH4Cl. After 6 hrs incubation the cells from each well were harvested and transferred to an 1.5 ml Eppendorf tube. 30 μl ddH20, 2 μl reducing agent and 8 μl loading buffer (Fermentas) were added, the tubes were placed in boiling water for 5 min. and spun at full speed for 1 min. in an Eppendorf centrifuge. 15 μl of each sample were loaded on a 4-15% polyacrylamid gel (BioRad), run at 45 mAmp for 90 min. Transfer to PVDF membrane (GE Healthcare) was done at 75 volt for 30 min., and the membrane was stained with anti-human APP monoclonal antibody 6E10 (SIGNET) at dilution 1:1000, and as secondary antibody polyclonal goat anti-mouse immunoglobulines/HRP (Dako Cytomation) at dilution 1:2000. b) Extraction of protein from brain tissue was done with 100-200 mg flash frozen cortical tissue homogenized in a tissue-grinder with 3 ml lysis buffer (Tris-HCl 50 mM, EDTA 10 mM, SDS 1%, Triton X-100 0.5%, ⅓ Protease Inhibitor Cocktail Tablet (Roche), pH 8.0). The solution was transferred to an Eppendorf tube (1 ml), centrifuged at 12,000 rpm for 2 min at 4° C. and supernatant transferred to a new tube. After vortexing the tube was frozen in dry ice for 3 min, thawed at 37° C. for 3 min, and this freeze/thaw step was repeated 3 times. Finally, the solution was centrifuged at 14,000 rpm (4° C.) for 10 min, the pellet discarded and the protein concentration of the supernatant determined. 8 μg protein extract was loaded in each lane of the polyacrylamid gel. Western blotting was done as described above. […]

[3] = molecular target: T1, β-secretase (Mus musculus, UniProt P56818); settings: oral administration, APP transgenic mice; cited from earlier work
T1 construct: host or cells: brain of APP transgenic mice (in vivo, oral dosing)
T1 sequence (P56818 46-501): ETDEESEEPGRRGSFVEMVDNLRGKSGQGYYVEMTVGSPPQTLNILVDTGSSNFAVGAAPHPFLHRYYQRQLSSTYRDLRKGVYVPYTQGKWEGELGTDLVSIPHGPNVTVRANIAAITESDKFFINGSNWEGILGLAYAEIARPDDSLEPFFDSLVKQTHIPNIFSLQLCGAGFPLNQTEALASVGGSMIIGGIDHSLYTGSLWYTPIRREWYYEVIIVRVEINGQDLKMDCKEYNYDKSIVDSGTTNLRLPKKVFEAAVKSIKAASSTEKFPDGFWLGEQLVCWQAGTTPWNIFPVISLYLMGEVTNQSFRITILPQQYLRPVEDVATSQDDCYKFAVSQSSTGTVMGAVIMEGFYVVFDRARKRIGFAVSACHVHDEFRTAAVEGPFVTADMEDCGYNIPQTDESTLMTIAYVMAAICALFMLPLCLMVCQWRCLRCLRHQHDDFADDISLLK

Compound: Abeta 1-42 antigen: Abeta 1-42 antigen in complete Freund adjuvant for active immunization
- accumulation of plaques in the brain [1]: reduces the accumulation of plaques

Compound: Cl.N [ammonium chloride]
- difference in intensity of the APP695 bands, transgenic vs non-transgenic fibroblasts ([2]; ammonium chloride in medium (2.5 mM NH4Cl per method), data not shown): no such effect

Compound: CCNc1cc(C(=O)N[C@@H](Cc2ccccc2)[C@H](O)CNCc2cccc(C(F)(F)F)c2)c(F)c(N2CCCCS2(=O)=O)c1 [GSK188909]
- brain Abeta [3]: significant lowering

Compound: CC(=O)N[C@@H](CC(C)C)C(=O)N[C@@H](CC(C)C)C(=O)N[C@H](C=O)CCCNC(=N)N [leupeptin]
- difference in intensity of the APP695 bands, transgenic vs non-transgenic fibroblasts ([2]; leupeptin in medium (20 μM per method), data not shown): no such effect

Compound: CCCC[C@@H](C=O)NC(=O)[C@H](CC(C)C)NC(=O)[C@H](CC(C)C)NC(C)=O [ALLN] (Ac-Leu-Leu-[Nle]-aldehyde)
- difference in intensity of the APP695 bands, transgenic vs non-transgenic fibroblasts ([2]; 20 μM ALLN in medium, fibroblasts of transgenic piglet No. 47 vs donor cells 74114): becomes more pronounced
- bands of lower molecular weight than mutated APP ([2]; ALLN treated fibroblasts of transgenic pig vs untreated): increased in intensity
